For orientation: EC50 means the concentration needed to bring the measured effect to its halfway point. The IC50 is the midpoint of a concentration-inhibition curve.

Read-outs that look alike come from different tables or passages of the source.

Experimental findings from patent US10287267B2, “Isoquinolin-3-yl carboxamides and preparation and use thereof” (Samumed, LLC, priority 2016, dated 2019) are described below.

Assay [1] has as its system Wnt pathway (Sp5-Luc reporter, TCF/LEF binding sites) in SW480 colon carcinoma cells. Description: Screening assay for Wnt activity: Sp5-Luc reporter gene assay.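 Also: firefly luciferase luminescence read in stably transduced SW480 cells carrying the Sp5 promoter reporter with eight TCF/LEF sites, compounds given in 0.1% DMSO final.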 The settings on record: Sp5-Luc reporter, SW480 cells, 36 to 48 hours. It counts as cell-based, human. In general terms: A reporter such as luciferase makes a cellular process visible.
Protocol: The screening assay for Wnt activity is described as follows.
Following incubation, 15 μl of BriteLite Plus luminescence reagent (Perkin Elmer) was added to each well of the 384-well assay plates. The plates were placed on an orbital shaker for 2 min and then luminescence was quantified using the Envision (Perkin Elmer) plate reader.
Assay [2] concerns IL-6. Description: Secreted cytokines in lipopolysaccharide-stimulated BV-2 mouse microglial cells: IL-6. The settings on record: BV-2 cells, compounds overnight, LPS 250 ng/mL 5 h. In kind it is cell-based. On the procedure: (§1) Representative compounds were screened using the cell-based assay procedure for secreted cytokines in a Lipopolysaccharide-stimulated mouse glial cell line described below.
(§2) BV-2 cells (mouse microglial cells) were cultured in 1:1 DMEM medium supplemented with 10% FBS, and 1% penicillin/streptomycin.
(§3) BV-2 cells are plated at 35,000 cells/well in a volume of 100 ul for at least 4 hours before compounds are added. DMSO-resuspended compounds were first dispensed in a 96 well plate and serial diluted from 10 μM to 4.6 nM final concentration in medium. Compounds were added to cells overnight. Two hundred fifty ng per milliliter of lipopolysaccharide (Escherichia coli O55:B5, SIGMA) was added for 5 h. Supernatant is removed and saved for further cytokine detection. The original plates with seeded cells were tested for cytotoxicity by measure of adenosine triphosphate (ATP) release by adding CellTiter-Glo® diluted 1:4 in distilled water (G7573, Promega) and transferring lysed cells to a completely black 96-well plate to be read with the Cytation3. Supernatant was then diluted 1:2 with a diluent from V-PLEX cytokine Kit and directly tested for the secreted cytokines TNFα, IL-6 and KC-GRO using electrochemiluminescence (Meso Scale Discovery). The standard curve for each cytokine was used to convert the electrochemiluminescent signal into pg of protein per mL.

In the next assay the target is recombinant GSK3β kinase (Homo sapiens (Human), UniProt P49841). Description: GSK3β kinase assay (Ser/Thr 09 peptide Z-lyte FRET).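 Also: kinase activity read as coumarin to fluorescein emission ratio, 11-point threefold dilutions from 10 µM to 0.0003 µM in duplicate, unphosphorylated and phosphorylated peptide as 0% and 100% controls.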 In kind it is biochemical. Conditions: 46 μM ATP, 1 h room temperature.
Chain of recombinant GSK3β kinase (P49841 whole entry): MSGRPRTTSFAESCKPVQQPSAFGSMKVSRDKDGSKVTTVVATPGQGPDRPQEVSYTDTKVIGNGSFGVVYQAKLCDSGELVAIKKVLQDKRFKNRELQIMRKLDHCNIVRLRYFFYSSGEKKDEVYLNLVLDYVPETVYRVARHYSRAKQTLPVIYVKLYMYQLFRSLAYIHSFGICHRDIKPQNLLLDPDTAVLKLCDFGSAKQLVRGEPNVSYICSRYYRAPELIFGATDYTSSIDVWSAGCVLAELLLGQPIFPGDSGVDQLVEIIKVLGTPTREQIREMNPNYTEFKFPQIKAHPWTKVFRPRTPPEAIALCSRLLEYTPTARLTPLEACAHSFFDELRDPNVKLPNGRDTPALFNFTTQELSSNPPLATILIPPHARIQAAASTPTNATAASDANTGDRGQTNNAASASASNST
Assay [3] relates to Tau phosphorylation at Ser396 (pSer396). Put plainly: Tau phosphorylation assay (pSer396 ELISA / western blot) in SH-SY5Y cells.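 Also: EC50 for reduction of Tau pSer396 in lysed cells, measured by colorimetric ELISA or chemiluminescent western blot, both using the same pSer396 antibody.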 It counts as cell-based, human. The settings on record: read-out: pSer396 Tau EC50. (In general: In an ELISA, binding on a coated surface is turned into a signal by an enzyme label.)
For assay [4], the system named is α-smooth muscle actin (αSMA) positive LL29 cells. Put plainly: Inhibition of fibrotic process: αSMA in TGF-β1 treated primary human fibroblasts from IPF patients.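 Also: controls were TGF-β1 stimulated wells with DMSO vehicle (positive) and cells given DMSO alone (negative), cultured in F12 medium with 1% fetal bovine serum.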 It counts as cell-based. Conditions: Homo sapiens, Fibroblast, 96 h; Table 8; LL29 fibroblasts from IPF patients, TGF-β1 20 ng/mL, 4 days; dose-response 10 μM to 0.94 nM.
In the next assay the test system is TNFα. Put plainly: Secreted cytokines in lipopolysaccharide-stimulated BV-2 mouse microglial cells: TNFα. It counts as cell-based. Conditions: BV-2 cells, compounds overnight, LPS 250 ng/mL 5 h. On the procedure: as §1, §2, §3
In assay [5] the target is recombinant DYRK1A kinase (Homo sapiens (Human), UniProt Q13627). Put plainly: DYRK1A kinase assay (Ser/Thr 18 peptide Z-lyte FRET).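 Also: Read-out is the coumarin to fluorescein emission ratio, referenced to unphosphorylated (0%) and phosphorylated (100%) Ser/Thr 18 peptide controls, values from dose-response curves by non-linear regression.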 In kind it is biochemical. The settings on record: 30 μM ATP, 1 h room temperature.
Assay [6] relates to IL-6. Description: IL-6 inhibition in LPS-stimulated human peripheral blood mononuclear cells (HTRF).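 Also: IL-6 detected by HTRF with an XL665- and Cryptate-labelled anti-IL-6 antibody pair, samples run in duplicate, EC50 obtained from a four-parameter Levenberg-Marquardt curve fit.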 It counts as cell-based. Conditions: Table 9, huPBMCs, LPS 50 ng/mL, 22 hours, dose-response starting from 10 μM. For orientation: Time-resolved FRET reads energy transfer from a long-lived donor to a nearby acceptor.
Protocol: After 22 hour incubation, a mixture of anti-IL6 XL665 and anti-IL-6 Cryptate diluted in reconstitution buffer (Catalog #62IL6PEC, Cisbio Inc., Bedford, Mass.) was added to each well. […] All samples were processed in duplicate. […] EC50 was determined using software generated by Dotmatics Limited (Windhill Bishops Stortford Herts, UK) using the Levenberg-Marquardt 4 parameter fitting procedure with finite different gradients.
The subject of assay [7] is SW480 colon carcinoma cells. Put plainly: Cell viability assay (CellTiter-Glo). In kind it is cell-based, human. Conditions: SW480 cells, CellTiter-Glo, four days incubation.
For the next assay, the system named is KC-GRO. Put plainly: Secreted cytokines in lipopolysaccharide-stimulated BV-2 mouse microglial cells: KC-GRO. In kind it is cell-based. Conditions: BV-2 cells, compounds overnight, LPS 250 ng/mL 5 h. On the procedure: as §1, §2, §3
For assay [8], the system named is secreted β-amyloid 40 (Aβ40) peptide. Put plainly: Secreted β-amyloid 40 (Aβ40) peptide in APP overexpressing SH-SY5Y-APP cells. In kind it is cell-based. Conditions: Homo sapiens, overnight (16-18 hours).
Protocol: Representative compounds were screened using the cell-based assay procedure for secreted β-amyloid 40 (Aβ40) peptide in an APP overexpressing cell line described below.
SH-SY5Y cells were infected with lentivirus to overexpress amyloid (A4) beta precursor protein (APP), hereafter referred to as the SH-SY5Y-APP cells.
SH-SY5Y cells were seeded onto 6-well plates at
The cell assay procedure start 18 h prior to treatment, as SH-SY5Y-APP cells were seeded onto 96-well plates at
At this time, designated wells were seeded with SH-SY5Y cells that were seeded and treated with puromycin at
Cells were exposed overnight (16-18 hours) in a 37° C. incubator before supernatant was harvested. […] The original plates with seeded cells were tested for cytotoxicity by measure of adenosine triphosphate (ATP) release by adding CellTiter-Glo® diluted 1:4 in distilled water (G7573, Promega) and transferring lysed cells to a completely black 96-well plate to be read with the Cytation3. Plates containing supernatant were spun down at 1200 g for 10 minutes to remove any cellular debris. Supernatant was then diluted 1:2 with a diluent from V-PLEX Aβ40 Peptide (6E10) Kit and directly tested for secreted Aβ40 peptide (K150SKE, Meso Scale Discovery).
[9] abbreviates: Homo sapiens, SH-SY5Y cells, overnight (16-18 h) exposure.

Turning to `CN1CC2(CC(C(=O)Nc3cc4cc(-c5cnn(C)c5)ccc4cn3)C2)C1` [Compound 324, 2-Methyl-N-(6-(1-methyl-1H-pyrazol-4-yl)isoquinolin-3-yl)-2-azaspiro[3.3] heptane-6-carboxamide], the EC50 in [1] (Homo sapiens) came out at 145 nM; with IL-6 [2] (Mus musculus) it was 20 nM; on recombinant GSK3β kinase it was 30 nM; in assay [3] (setting [9]), 180 nM; in assay [4], 68 nM; in the assay with TNFα it was 33 nM. The EC50 was 2.1 nM in assay [5]; 321 nM in the assay with IL-6 [6] (Homo sapiens, PBMC); 266 nM in assay [7] (Homo sapiens, 96 h).
As to `Cc1ncc(-c2ccc3cnc(NC(=O)[C@H]4CC[C@H](N5CCOCC5)CC4)cc3c2)o1` [Compound 1064, trans-N-(6-(2-methyloxazol-5-yl)isoquinolin-3-yl)-4-morpholinocyclohexane-1-carboxamide], the EC50 in assay [1] (Homo sapiens) amounted to 4120 nM; with IL-6 [2] (Mus musculus), 6 nM; on recombinant GSK3β kinase it was 126 nM; in [3] (setting [9]) it was 109 nM; with TNFα, 30 nM; with KC-GRO, 14 nM. For the same compound, the EC50 in assay [5] was found to be 6.7 nM; in the assay with IL-6 [6] (Homo sapiens, PBMC) it was 3500 nM; in assay [7] (Homo sapiens, 96 h) it was 4850 nM.
As to `CN1CCC(C(=O)Nc2cc3cc(-c4cnn(C)c4)ccc3cn2)CC1` [Compound 73, 1-Methyl-N-(6-(1-methyl-1H-pyrazol-4-yl)isoquinolin-3-yl)piperidine-4-carboxamide], the EC50 was found to be 485 nM in [1] (Homo sapiens); 80 nM in the assay with IL-6 [2] (Mus musculus); 49 nM at recombinant GSK3β kinase; 199 nM in [3] (setting [9]); 169 nM in [4]; 23 nM in the assay on TNFα. In addition, the EC50 in assay [5] is 1.7 nM; with IL-6 [6] (Homo sapiens, PBMC), 963 nM; in assay [7] (Homo sapiens, 96 h), 769 nM.
As to `Cn1cc(-c2ccc3cnc(NC(=O)CN4CCOCC4)cc3c2)cn1` [Compound 338, N-(6-(1-Methyl-1H-pyrazol-4-yl)isoquinolin-3-yl)-2-morpholinoacetamide], the EC50 in assay [1] (Homo sapiens) amounted to 7370 nM; with IL-6 [2] (Mus musculus), 144 nM; on recombinant GSK3β kinase it was 67 nM; in [3] (setting [9]), 1700 nM; in [4], 643 nM; in the assay on TNFα, 724 nM. For the same compound, the EC50 in assay [5] was 6.2 nM; in the assay on IL-6 [6] (Homo sapiens, PBMC), 4460 nM; in assay [7] (Homo sapiens, 96 h), 9330 nM.
As to “1-(2-Hydroxy-2-methylpropyl)-N-(6-(1-methyl-1H-1,2,3-triazol-4-yl) isoquinolin-3-yl)piperidine-4-carboxamide [Compound 1070]”, the concentration giving a half-maximal response (EC50) in [1] was determined as 738 nM; in the assay on IL-6 [2], 14 nM; at recombinant GSK3β kinase, 16 nM; in assay [3] (SH-SY5Y cells, overnight (16-18 h) exposure), 91 nM; in assay [5], 7.6 nM; in the assay with IL-6 [6], 6470 nM. In assay [7], this compound came in with a 50% effective concentration (EC50) of 8390 nM.
Turning to `Cn1cc(-c2ccc3cnc(NC(=O)C4CCN(CC(C)(F)F)CC4)cc3c2)cn1` [Compound 83, 1-(2,2-Difluoropropyl)-N-(6-(1-methyl-1H-pyrazol-4-yl)isoquinolin-3-yl) piperidine-4-carboxamide], the EC50 in [1] (Homo sapiens) was 2900 nM; in the assay on IL-6 [2] (Mus musculus), 6 nM; at recombinant GSK3β kinase, 34 nM; in assay [3] (setting [9]), 432 nM; in assay [4] it was 67 nM; in assay [5], 1.2 nM. The half-maximal effective concentration (EC50) stood at 2150 nM in the assay with IL-6 [6] (Homo sapiens, PBMC) and 6340 nM in [7] (Homo sapiens, 96 h). In [8], this compound returned an IC50 above 10000 nM.
Consider `Cn1cc(-c2ccc3cnc(NC(=O)C4CCN(CC(C)(C)F)CC4)cc3c2)cn1` [Compound 85, 1-(2-Fluoro-2-methylpropyl)-N-(6-(1-methyl-1H-pyrazol-4-yl)isoquinolin-3-yl)piperidine-4-carboxamide], for which the EC50 in assay [1] (Homo sapiens) stood at 1200 nM; at recombinant GSK3β kinase it was 29 nM; in [3] (setting [9]) it was 392 nM; in [4], 97 nM; in assay [5] it was 1.4 nM; in the assay with IL-6 [6] (Homo sapiens, PBMC), 1150 nM. Further, in assay [7] (Homo sapiens, 96 h), the half-maximal effective concentration (EC50) was determined as 1640 nM. The compound further had an IC50 in [8] of 1300 nM.
With `Cn1cc(-c2ccc3cnc(NC(=O)C4CCNCC4)cc3c2)cn1` [Compound 72, N-(6-(1-methyl-1H-pyrazol-4-yl)isoquinolin-3-yl)piperidine-4-carboxamide], the EC50 amounted to 920 nM in assay [1] (Homo sapiens); 64 nM on recombinant GSK3β kinase; 757 nM in assay [3] (setting [9]); 96 nM in assay [4]; 2.5 nM in assay [5]; 1130 nM in the assay with IL-6 [6] (Homo sapiens, PBMC). Further, in assay [7] (Homo sapiens, 96 h), the 50% effective concentration (EC50) amounted to 911 nM. Also, the IC50 in assay [8] was determined as 2100 nM.
In the case of `Cn1cc(-c2ccc3cnc(NC(=O)C4CCN(CCF)CC4)cc3c2)cn1` [Compound 81, 1-(2-Fluoroethyl)-N-(6-(1-methyl-1H-pyrazol-4-yl)isoquinolin-3-yl) piperidine-4-carboxamide], the concentration for a half-maximal effect (EC50) in [1] (Homo sapiens) is 735 nM; in the assay with IL-6 [2] (Mus musculus), 30 nM; at recombinant GSK3β kinase, 30 nM; in [3] (setting [9]) it was 452 nM; in [4] it was 104 nM; with TNFα, above 10000 nM. Moreover, the EC50 came out at 1.5 nM in assay [5]; 395 nM in the assay on IL-6 [6] (Homo sapiens, PBMC); 949 nM in assay [7] (Homo sapiens, 96 h). In [8], this compound gave a 50% inhibitory concentration (IC50) of 2300 nM.
On to `CC(C)CN1CCC(C(=O)Nc2cc3cc(-c4cn(C)nn4)ccc3cn2)CC1` [Compound 468], for which the EC50 is 363 nM in assay [1] (Homo sapiens); 23 nM in the assay with IL-6 [2] (Mus musculus); 7 nM at recombinant GSK3β kinase; 39 nM in [3] (setting [9]); 2100 nM with TNFα; 4.9 nM in assay [5]. The concentration for a half-maximal effect (EC50) with IL-6 [6] (Homo sapiens, PBMC) was determined as 5780 nM; in [7] (Homo sapiens, 96 h), 2510 nM.
Consider `Cn1cncc1-c1ccc2cnc(NC(=O)C3CCN(CCC(F)(F)F)CC3)cc2c1` [Compound 262, N-(6-(1-Methyl-1H-imidazol-5-yl)isoquinolin-3-yl)-1-(3,3,3-trifluoropropyl) piperidine-4-carboxamide], for which the EC50 turned out to be 1700 nM in assay [1] (Homo sapiens); 1500 nM in the assay on IL-6 [2] (Mus musculus); 24 nM at recombinant GSK3β kinase; 174 nM in assay [3] (setting [9]); 43 nM in assay [4]; 3200 nM with TNFα. Besides, the EC50 in assay [5] came to 1.5 nM; in the assay on IL-6 [6] (Homo sapiens, PBMC), 1090 nM; in assay [7] (Homo sapiens, 96 h) it was 1390 nM. The compound further gave an IC50 in [8] of 2200 nM.
Turning to `Cn1cc(-c2ccc3cnc(NC(=O)C4CC4)cc3c2)cn1` [Compound 1, N-(6-(1-Methyl-1H-pyrazol-4-yl)isoquinolin-3-yl)cyclopropanecarboxamide], the EC50 came to 650 nM in [1] (Homo sapiens); 8 nM at recombinant GSK3β kinase; 149 nM in assay [3] (setting [9]); 135 nM in assay [4]; 4 nM in assay [5]; 338 nM with IL-6 [6] (Homo sapiens, PBMC). For the same compound, in assay [7] (Homo sapiens, 96 h), a half-maximal effect (EC50) was put at 130 nM. The same compound registered an IC50 in [8] of 3960 nM.
`Cn1cnnc1-c1ccc2cnc(NC(=O)C3CCN(CCC(F)(F)F)CC3)cc2c1` [Compound 278, N-(6-(4-Methyl-4H-1,2,4-triazol-3-yl)isoquinolin-3-yl)-1-(3,3,3-trifluoropropyl)piperidine-4-carboxamide]: the EC50 was 413 nM in [1] (Homo sapiens); 217 nM with IL-6 [2] (Mus musculus); 7 nM on recombinant GSK3β kinase; 76 nM in [3] (setting [9]); 211 nM in assay [4]; above 10000 nM in the assay with TNFα. In addition, the EC50 in [5] was 3.2 nM; with IL-6 [6] (Homo sapiens, PBMC), 3990 nM; in assay [7] (Homo sapiens, 96 h), 1230 nM.
Take `Cn1cncc1-c1ccc2cnc(NC(=O)C3C(C)(C)C3(C)C)cc2c1` [Compound 269, 2,2,3,3-Tetramethyl-N-[6-(3-methylimidazol-4-yl)-3-isoquinolyl]cyclopropanecarboxamide]: the EC50 was 3620 nM in assay [1] (Homo sapiens); 1020 nM on recombinant GSK3β kinase; 4300 nM in assay [3] (Homo sapiens, SH-SY5Y); 396 nM in assay [4]; 5 nM in [5]; 3390 nM with IL-6 [6] (Homo sapiens, PBMC). Besides, the EC50 in assay [7] (Homo sapiens, 96 h) was determined as 2330 nM. In assay [8], this compound registered an IC50 above 10000 nM.
